The values below come from patent US10159676B2, “Induction of tumor hypoxia for cancer therapy” (Virginia Commonwealth University, priority 2008, dated 2018).

“Also recorded” adds a separate entry of the source.

The subject of assay [1] is UCI-101 ovarian cancer tumor xenografts. Kind of assay: Real-time measurement of tumor oxygen and blood flow (OxyLite/OxyFlo). The following applies: 50 mg/kg intraperitoneal. The assay is classed as in vivo, nude mice. The method, then:
FIG. 3. Tumor blood flow and oxygen content in tumor. Oxygen and blood flow were monitored by OxyFlo and OxyLite system (Optronix, Oxford, UK). Mice were anesthetized with isoflurane and a triple sensor that records temperature, oxygen and blood flow was inserted into tumor and left for 1 hour for recording. Shown are the results of three mice with similar size subcutaneous tumors derived from UCI-101 ovarian cancer cells. Top panels are oxygen level and lower panels are tumor blood flow. Timing of St5c injection was marked.
Nude mice were injected subcutaneously with UCI-101 ovarian cancer cells to form tumor xenografts. Tumor xenografts were subjected to oxygen and blood flow study when tumor size reached 8-10 mm in largest diameter. Tumor was punctured with 25 G needle to make a tunnel for insertion of sensor probe. The tip of the sensor probe was left in the center of the tumor. Tumor oxygen level and blood flow were determined by OxyLite 2000 dual channel monitoring system with “bare-fibre” type sensor probe, which is designed for measuring tissue oxygen, temperature and blood flow using laser Doppler technique (Optonix, oxford, UK). The measurement was done in a real time basis (100 measurements per second) and the oxygen level and tumor blood flow were recording continuously. Because the initial trauma induced by needle and insertion of sensor probe can interfere with blood flow and oxygenation, each mouse was recorded first without treatment for at least 20 min before the mice was injected intraperitoneally with the tested VDA cis-3, 4′,5-trimethoxy-3′-aminostilbene (stilbene 5c) at 50 mg/kg. The tumor blood flow and oxygen level was then recorded for another 20 min after treatment.
In this study, we performed proof of concept study with VDA stilbene 5c to confirm that stilbene 5c induce tumor hypoxia. […]
There are several issues that need to be considered in order to interpret the results. […] All mice were thus recorded for at least 20 min to record the pre-treatment baseline. […]

In a further assay the test system is UCI101 tumor xenografts. The assay can be described thus: Tumor and normal organ perfusion by DCE-MRI (gadolinium accumulation). Type of assay: in vivo, nude mice. The following applies: stilbene 5c 50 mg/kg intraperitoneal, 4 hours after injection, same mice before vs after. The method, then: FIGS. 1A and B. Study of tumor perfusion using accumulation of gadolinium at 30 min after gadolinium injection. (A) T1-weighted images before and after stilbene 5c treatment in the same mouse. Nude mice with established subcutaneously UCI101 tumor xenografts were analyzed with DCE-MRI for tumor perfusion. DCE-MRI images were collected for 30 min after injection of gadolinium (OmniScan) into tail veins. The same mice were studied before and after stilbene 5c treatment to avoid individual variation. The left panels show the T1-weighted images before injection of gadolinium. The right panels show images at 30 min after injection of gadolinium. […] (B) Average of calculated gadolinium concentrations in tumor and muscle before and after stilbene 5c treatment. […]
Nude mice with tumor xenografts were anesthetized with 1% isoflurane and mixed oxygen. […] After the initial rate is established, subsequent MRI studies focused on the sustained increase in gadolinium signals, which also provide qualitative and quantitative information for tissue perfusion. […]
Stilbene 5c was investigated to examine whether it can suppress tumor blood flow and eventually lead to tumor hypoxia. […] After injected with 20 μl of gadolinium (OmniScan) via the tail vein, mice were analyzed with a rapid sequence MRI every minute for total of 30 min. […]

Regarding `COc1cc(/C=C\c2ccc(OC)c(N)c2)cc(OC)c1` [stilbene 5c, cis-3, 4′, 5-trimethoxy-3′-aminostilbene], the “tumor oxygen level after treatment” value in assay [1] (all three mice, within 20-30 min recording, baseline 15-60 mm Hg) is “less than 10 mm Hg”. Besides, the “tumor blood flow after treatment, of the level before stilbene treatment” value in assay [1] (mice #1 and 3) is given as “less than 25%”. The “tumor blood flow change” value in assay [1] (mouse #2 (low baseline flow 200-300)) was “significant in the beginning but subsequently recovered in some degree though still lower than baseline”. Further, in the assay on UCI101 tumor xenografts (30 min after gadolinium, 6 mice), the “concentration of gadolinium in tumor after stilbene 5c treatment (decreased to, average)” value was 62.8%. The “concentration of gadolinium in muscle after stilbene 5c treatment” value in the assay on UCI101 tumor xenografts was “no significant change; also recorded: did not change”.
